# Experimental data as given in patent US8497303B2, “Method to enhance aqueous solubility of poorly soluble actives” (Dow Global Technologies LLC, priority 2008, dated 2013).
# Read-outs that look alike come from different tables or passages of the source.
# Key:
# [1] = for Percent Loading Using PEG 400: saturated solution, HPLC
# Protocol: For comparison, solutions of PEG 400 and water are prepared in an analogous manner to those including the MPEG 350.
# For comparison, solutions of PEG 400 and water are prepared in an analogous manner.
# [2] = for Percent Loading Using MPEG 350: saturated solution, HPLC
# Protocol: The solution is then stirred with a vortex mixer for approximately 1 to 2 minutes, then shaken with an automated shaker for about 45 minutes. […] The sample is then left overnight in a water bath at about 29° C.
# The solution is stirred with a vortex mixer for approximately 1 to 2 minutes, then shaken with an automated shaker for about 45 minutes. […] The sample is left overnight in a water bath at about 30° C.
# The solutions are then filtered through a syringe filter and the concentrations are characterized by HPLC. The percent water in the MPEG solutions varies from 0 to 20 percent.
# The solution is then filtered through a syringe filter and the concentration is characterized by HPLC. The percent water in the MPEG solutions varies from 0 to 20 percent.
SMILES,Solubility (maximum loading) in PEG 400 [1],Percent Loading Using PEG 400 ([1]; 0 percent water in PEG 400),Percent Loading Using PEG 400 ([1]; 5 percent water in PEG 400),Percent Loading Using PEG 400 ([1]; 10 percent water in PEG 400),Percent Loading Using PEG 400 ([1]; 15 percent water in PEG 400),Percent Loading Using PEG 400 ([1]; 20 percent water in PEG 400),Maximum solubility for MPEG 350:water blends greater than that for PEG 400:water blends [2],Percent Loading Using MPEG 350 ([2]; 0 percent water in MPEG 350),Percent Loading Using MPEG 350 ([2]; 5 percent water in MPEG 350),Percent Loading Using MPEG 350 ([2]; 10 percent water in MPEG 350),Percent Loading Using MPEG 350 ([2]; 15 percent water in MPEG 350),Percent Loading Using MPEG 350 ([2]; 20 percent water in MPEG 350),Loading with MPEG:water blends relative to PEG:water blends ([2]; when water is added),Amount solubilized by neat PEG 400 solution relative to neat MPEG 350 solution [1],Increase in loading compared to the MPEG 350 solution containing no water ([2]; 95:5 MPEG 350:water vs MPEG 350 without water),More loading with 95:5 MPEG 350:water blend compared to the best PEG 400:water blend ([2]; 95:5 MPEG 350:water vs PEG 400:water blend with highest loading),"Appearance of solution in MPEG 350 ([2]; approximately 15.4 weight percent solution, left overnight in water bath at about 30° C.)",Amount of drug loading in MPEG 350 solution higher than in PEG 400 solution ([2]; neat MPEG 350 vs neat PEG 400)
"CC(C)Cc1ccc(C(C)C(=O)O)cc1 (centres unmarked) [Ibuprofen, ibuprofen]",21.6±0.8 weight percent,21.60%,24.31%,21.48%,17.24%,11.56%,–,–,–,–,–,–,–,–,–,–,–,–
CC(=O)Nc1ccc(O)cc1 [Acetaminophen],–,16.82%,20.62%,21.78%,22.12%,21.59%,10.6%,16.20%,21.93%,23.62%,24.47%,24.01%,higher loading,slightly more,–,–,–,–
"COc1ccc2cc([C@H](C)C(=O)O)ccc2c1 [Naproxen, naproxen]",–,–,–,–,–,–,–,–,–,–,–,–,–,–,24.4%,29.2 weight percent,some suspended material,approximately 13.6%
